From patent US10414775B2 (Merck Sharp & Dohme Corp., priority 2016, dated 2019)
Structures can show the parent of a compound that is named as a salt.

Target: T1, Human CYP8B1 (Homo sapiens, UniProt Q9UNU6)
T1 construct: tissue Xenotech; host or cells: human liver microsomes
T1 sequence (Q9UNU6 1-501): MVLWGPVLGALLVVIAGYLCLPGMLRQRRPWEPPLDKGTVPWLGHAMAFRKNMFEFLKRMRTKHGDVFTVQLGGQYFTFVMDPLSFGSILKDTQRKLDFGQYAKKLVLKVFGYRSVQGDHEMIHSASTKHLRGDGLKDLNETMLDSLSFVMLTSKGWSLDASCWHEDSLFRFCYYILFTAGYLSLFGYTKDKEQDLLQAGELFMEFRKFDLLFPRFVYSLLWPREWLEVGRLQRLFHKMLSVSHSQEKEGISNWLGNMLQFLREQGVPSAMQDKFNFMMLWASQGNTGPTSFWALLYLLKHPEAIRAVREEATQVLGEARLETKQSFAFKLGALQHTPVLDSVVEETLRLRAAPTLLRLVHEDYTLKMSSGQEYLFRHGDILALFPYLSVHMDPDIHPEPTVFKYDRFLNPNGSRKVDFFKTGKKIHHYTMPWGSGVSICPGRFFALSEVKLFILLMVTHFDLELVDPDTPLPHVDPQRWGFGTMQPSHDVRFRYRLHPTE
Assay: Human Cyp8B1 Liver Microsome Assay
Type: biochemical
Conditions: human liver microsomes; substrate 7α-hydroxy-4-cholesten-3-one, NADPH; 30 min pre-incubation, 45 min reaction; RapidFire MS readout
Method: Human Cyp8B1 Liver Microsome Assay To a 384 well polypropylene plate (Corning 3656), 250 nl of inhibitor in 100% DMSO (1.25% final DMSO concentration) was pre-plated using an Echo liquid handler (Labcyte Inc.). Human liver microsomes (Xenotech) were diluted in of 0.1 M phosphate buffer, pH 7.4, at a concentration of 65 μg/ml and 15 μL was added to the 384 well plate. The plates were incubated at ambient room temperature for 30 minutes. After pre-incubation with inhibitor, the reaction was initiated by adding 5 μl of substrate solution (4.0 μM 7α-hydroxy-4-cholesten-3-one(Toronto Research Chemicals), 2 mM of NADPH (Sigma), 0.1 M phosphate buffer (pH 7.4). The reaction was carried out for 45 minutes at ambient room temperature and was quenched by the addition of 50 μl of acetonitrile+0.1% vol/vol formic acid (FA)+300 nM 7α-hydroxy-4-cholesten-3-one-d7 (Toronto Research Chemicals). The plates were sealed and centrifuged at 3000 rpm for 5 minutes. Plates were loaded onto the Agilent RapidFire RF300 HTMS system, wherein samples were sipped for 600 ms, and the sip sensor detection signals the diversion of sample from the loop onto a C4 solid phase extraction (SPE) cartridge, where salts are washed off for 2500 ms with a mobile phase of water with 0.1% vol/vol FA at a flow rate of 1.5 ml/min. The column path is switched, and the sample is eluted off the cartridge and flowed into the mass spectrometer for 3000 ms with a mobile phase of acetonitrile and 0.1% vol/vol FA at a flow rate of 1.25 ml/min. The aspirator tip was washed separately with water and acetonitrile between sample aspirations (each for 600 ms) to minimize carryover contamination. Mass spectrometry was carried out using a Sciex API4000 triple quadrupole mass spectrometer (Applied Biosystems, Concord, ON, Canada) equipped with electrospray ionization (ESI) operated in the positive-ion mode. The product 7α, 12α-dihydroxy-4-cholesten-3-one and internal standard 7α-hydroxy-4-cholsten-3-one-d7 were detected using multiple reaction monitoring (MRM) with Q1/Q3 transitions at m/z 417.3 to 381.3 and m/z 408.3 to 390.3, respectively, with a dwell time of 100 ms and a collision energy of 24 V for each transition. The mass spectrometer used an ESI voltage of 5000 V and a source temperature of 650° C. Extracted ion chromatograms for each transition were integrated and processed using the RapidFire Integrator software. The data for each well were normalized by monitoring product conversion with the ratio of AUCproduct/(AUCinternal standard). The data was then fitted to a four parameter logistic fit using ActivityBase Software to calculate an IC50 of the inhibitor.

SMILES	IC50 [nM]
COc1ccc2c(N3CC[C@H](C(=O)N4CCn5c(nnc5C(F)(F)F)C4)[C@H](C)C3)c([N+](=O)[O-])cnc2c1 [Example 9, ((3S,4S)-1-(7-methoxy-3-nitroquinolin-4-yl)-3-methylpiperidin-4-yl)(3-(trifluoromethyl)-5,6-dihydro-[1,2,4]triazolo[4,3-a]pyrazin-7(8H)-yl)methanone]	0.2
CC1CN(c2ccnc3ccc(Cl)cc23)CCC1C(=O)N1CCn2c(nnc2C(F)(F)F)C1 (stereo not drawn) [Example 10, [1-(6-chloroquinolin-4-yl)-3-methylpiperidin-4-yl][3-(trifluoromethyl)-5,6-dihydro[1,2,4]triazolo[4,3-a]pyrazin-7(8H)-yl]methanone]	8.5
C[C@@H]1CN(c2ccnc3cc(C(F)(F)F)ccc23)CC[C@@H]1C(=O)N1CCn2c(nnc2C(F)(F)F)C1 [Example 12, {(3S,4S)-3-methyl-1-[7-(trifluoromethyl)quinolin-4-yl]piperidin-4-yl}[3-(trifluoromethyl)-5,6-dihydro[1,2,4]triazolo[4,3-a]pyrazin-7(8H)-yl]methanone]	5.2
C[C@@H]1CN(c2ccnc3c(F)c(Cl)ccc23)CC[C@@H]1C(=O)N1CCn2c(nnc2C(F)(F)F)C1 [Example 20, 7-chloro-8-fluoro-4-[(3S,4S)-3-methyl-4-{[3-(trifluoromethyl)-5,6-dihydro[1,2,4]tria-zolo[4,3-a]pyrazin-7(8H)-yl]carbonyl}piper-idin-1-yl]quinolinium trifluoroacetate]	14
C[C@@H]1CN(c2ccnc3cc(Cl)ccc23)CC[C@@H]1C(=O)N1CCn2c(nnc2C(F)(F)F)C1 [Example 21, [(3S,4S)-1-(7-chloroquinolin-4-yl)-3-methylpiperidin-4-yl][3-(trifluoromethyl)-5,6-dihydro[1,2,4]tria-zolo[4,3-a]pyrazin-7(8H)-yl]methanone]	6.3
C[C@@H]1CN(c2ccnc3cc(F)ccc23)CC[C@@H]1C(=O)N1CCn2c(nnc2C(F)(F)F)C1 [Example 22, [(3S,4S)-1-(7-fluoroquinolin-4-yl)-3-methylpiperidin-4-yl][3-(trifluoromethyl)-5,6-dihydro[1,2,4]tria-zolo[4,3-a]pyrazin-7(8H)-yl]methanone]	19
COc1ccc2c(N3CC[C@H](C(=O)N4CCn5c(nnc5C(F)(F)F)C4)[C@H](C)C3)ccnc2c1 [Example 23, [(3S,4S)-1-(7-methoxyquinolin-4-yl)-3-methylpiperidin-4-yl][3-(trifluoromethyl)-5,6-dihydro[1,2,4]tria-zolo[4,3-a]pyrazin-7(8H)-yl]methanone]	237
C[C@@H]1CN(c2ccnc3cc(C#N)ccc23)CC[C@@H]1C(=O)N1CCn2c(nnc2C(F)(F)F)C1 [Example 24, 4-[(3S,4S)-3-methyl-4-{[3-(trifluoromethyl)-5,6-dihydro[1,2,4]tria-zolo[4,3-a]pyrazin-7(8H)-yl]carbonyl}piper-idin-1-yl]quinoline-7-carbonitrile]	8.4
COc1cnc2c(N3CC[C@H](C(=O)N4CCn5c(nnc5C(F)(F)F)C4)[C@H](C)C3)ccnc2c1 [Example 25, [(3S,4S)-1-(7-methoxy-1,5-naphthyridin-4-yl)-3-methylpiperidin-4-yl][3-(trifluoromethyl)-5,6-dihydro[1,2,4]tria-zolo[4,3-a]pyrazin-7(8H)-yl]methanone]	307
COc1ccc2nccc(N3CC[C@H](C(=O)N4CCn5c(nnc5C(F)(F)F)C4)[C@H](C)C3)c2n1 [Example 26, [(3S,4S)-1-(6-methoxy-1,5-naphthyridin-4-yl)-3-methylpiperidin-4-yl][3-(trifluoromethyl)-5,6-dihydro[1,2,4]tria-zolo[4,3-a]pyrazin-7(8H)-yl]methanone]	18
Cc1ccc2c(N3CC[C@H](C(=O)N4CCn5c(nnc5C(F)(F)F)C4)[C@H](C)C3)ccnc2n1 [Example 27, [(3S,4S)-3-methyl-1-(7-methyl-1,8-naphthyridin-4-yl)piperidin-4-yl][3-(trifluoromethyl)-5,6-dihydro[1,2,4]tria-zolo[4,3-a]pyrazin-7(8H)-yl]methanone]	6700
C[C@@H]1CN(c2ccnc3cc(C4CC4)ccc23)CC[C@@H]1C(=O)N1CCn2c(nnc2C(F)(F)F)C1 [Example 28, 7-cyclopropyl-4-[(3S,4S)-3-methyl-4-{[3-(trifluoromethyl)-5,6-dihydro[1,2,4]tria-zolo[4,3-a]pyrazin-7(8H)-yl]carbonyl}piper-idin-1-yl]quinolinium chloride]	0.66
C[C@@H]1CN(c2ccnc3cc(OC(F)(F)F)ccc23)CC[C@@H]1C(=O)N1CCn2c(nnc2C(F)(F)F)C1 [Example 29, {(3S,4S)-3-methyl-1-(7-(trifluoromethoxy)quinolin-4-yl]piperidin-4-yl}[3-(trifluoromethyl)-5,6-dihydro[1,2,4]tria-zolo[4,3-a]pyrazin-7(8H)-yl]methanone]	0.34
C[C@@H]1CN(c2ccnc3cc(OCc4ccccc4)ccc23)CC[C@@H]1C(=O)N1CCn2c(nnc2C(F)(F)F)C1 [Example 30]	3.91

The remaining lines, values ahead:

IC50 [nM]	SMILES
3040	Cc1cc(N2CC[C@H](C(=O)N3CCn4c(nnc4C(F)(F)F)C3)[C@H](C)C2)c2cc(Cl)ccc2n1 [Example 13, [(3S,4S)-1-(6-chloro-2-methylquinolin-4-yl)-3-methylpiperidin-4-yl][3-(trifluoromethyl)-5,6-dihydro[1,2,4]tria-zolo[4,3-a]pyrazin-7(8H)-yl]methanone]
52	C[C@@H]1CN(c2ccnc3ccc(F)cc23)CC[C@@H]1C(=O)N1CCn2c(nnc2C(F)(F)F)C1 [Example 14, [(3S,4S)-1-(6-fluoroquinolin-4-yl)-3-methylpiperidin-4-yl][3-(trifluoromethyl)-5,6-dihydro[1,2,4]tria-zolo[4,3-a]pyrazin-7(8H)-yl]methanone]
245	Cc1cc(N2CC[C@H](C(=O)N3CCn4c(nnc4C(F)(F)F)C3)[C@H](C)C2)c2cc(F)ccc2n1 [Example 15, [(3S,4S)-1-(6-fluoro-2-methylquinolin-4-yl)-3-methylpiperidin-4-yl][3-(trifluoromethyl)-5,6-dihydro[1,2,4]tria-zolo[4,3-a]pyrazin-7(8H)-yl]methanone]
37	Cc1nc2ccc(F)cc2c(N2CC[C@H](C(=O)N3CCn4c(nnc4C(F)(F)F)C3)[C@H](C)C2)c1C [Example 16, [(3S,4S)-1-(6-fluoro-2,3-dimethylquinolin-4-yl)-3-methylpiperidin-4-yl][3-(trifluoromethyl)-5,6-dihydro[1,2,4]tria-zolo[4,3-a]pyrazin-7(8H)-yl]methanone]
145	Cc1cc(N2CC[C@H](C(=O)N3CCn4c(nnc4C(F)(F)F)C3)[C@H](C)C2)c2cc(F)cc(F)c2n1 [Example 17, [(3S,4S)-1-(6,8-difluoro-2-methylquinolin-4-yl)-3-methylpiperidin-4-yl][3-(trifluoromethyl)-5,6-dihydro[1,2,4]tria-zolo[4,3-a]pyrazin-7(8H)-yl]methanone]
385	Cc1cc(N2CC[C@H](C(=O)N3CCn4c(nnc4C(F)(F)F)C3)[C@H](C)C2)c2ccc(F)c(F)c2n1 [Example 18, 7,8-difluoro-2-methyl-4-[(3S,4S)-3-methyl-4-{[3-(trifluoromethyl)-5,6-dihydro[1,2,4]tria-zolo[4,3-a]pyrazin-7(8H)-yl]carbonyl}piper-idin-1-yl]quinolinium trifluoroacetate]
107	Cc1cc(N2CC[C@H](C(=O)N3CCn4c(nnc4C(F)(F)F)C3)[C@H](C)C2)c2ccc(Cl)cc2n1 [Example 19, 7-chloro-2-methyl-4-[(3S,4S)-3-methyl-4-{[3-(trifluoromethyl)-5,6-dihydro[1,2,4]tria-zolo[4,3-a]pyrazin-7(8H)-yl]carbonyl}piper-idin-1-yl]quinolinium trifluoroacetate]
